Experimental data: patent US20220354833A1, “ALVELESTAT FOR USE IN THE TREATMENT OF GRAFT REJECTION, BRONCHIOLITIS OBLITERANS SYNDROME AND GRAFT VERSUS HOST DISEASE” (MEREO BIOPHARMA 4 LIMITED, priority 2019, published 2022)
Where “and” joins values, the source holds several entries; their conditions need not be identical. Equal entries are not always repeated. Entries after “also recorded” stand apart in the source; their conditions may differ. Where two headings read alike, the source gives them in different places.

Assays:
murine model of GVHD = assay type: in vivo
human NE [1] = target: T1, human NE (Homo sapiens, UniProt P08246); conditions: read-out: binding affinity KD; cited from earlier work
T1 sequence (P08246 30-267): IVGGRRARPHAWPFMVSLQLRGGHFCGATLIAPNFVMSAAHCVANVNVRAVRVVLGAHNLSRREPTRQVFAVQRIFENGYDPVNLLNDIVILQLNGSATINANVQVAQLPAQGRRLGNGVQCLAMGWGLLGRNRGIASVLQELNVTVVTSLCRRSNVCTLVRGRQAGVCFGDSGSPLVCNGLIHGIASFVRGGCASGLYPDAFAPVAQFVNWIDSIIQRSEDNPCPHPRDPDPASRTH

[2] = test system: patients with BOS and chronic GVHD after HCT
human NE [3] = target: T1, human NE; conditions: cited from earlier work
murine NE = target: T2, murine NE (Mus musculus, UniProt Q3UP87); conditions: cited from earlier work
T2 sequence (Q3UP87 27-265): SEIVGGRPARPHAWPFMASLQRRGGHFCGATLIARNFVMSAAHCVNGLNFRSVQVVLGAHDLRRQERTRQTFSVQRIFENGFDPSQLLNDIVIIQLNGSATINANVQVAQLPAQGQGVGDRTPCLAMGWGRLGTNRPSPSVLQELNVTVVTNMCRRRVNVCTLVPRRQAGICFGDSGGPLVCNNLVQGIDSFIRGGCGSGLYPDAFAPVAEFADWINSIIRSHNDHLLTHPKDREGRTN

NE [4] = target: T3, NE (Homo sapiens, UniProt P08246); conditions: whole-blood assay; cited from earlier work
NE [5] = target: T3, NE; conditions: cell-associated assay; cited from earlier work

Cc1c(-c2ccnn2C)cc(C(=O)NCc2ccc(S(C)(=O)=O)cn2)c(=O)n1-c1cccc(C(F)(F)F)c1 [alvelestat, N-{[5-(methanesulfonyl)pyridin-2-yl]methyl}-6-methyl-5-(1-methyl-1H-pyrazol-5-yl)-2-oxo-1-[3-(trifluoromethyl)phenyl]-1,2-dihydropyridine-3-carboxamide]
histological scoring of GI GVHD (murine model of GVHD; 20 mg/kg diet vs T2e6, sacrificed Day 4, blinded pathologist, n=5/group, p=0.08, FIG. 4): trend toward increased pathology in the T2e6 group; also recorded: markedly less GVHD | survival (murine model of GVHD; T-cell dose experiment, 20 mg/kg in pre-mixed diet pellets, vs 2x10^6 T cells alone, p<0.001, n=5/group, FIG. 2A, 20 mg/kg): significantly improved survival; also recorded: better survival | toxicity in skin or liver (histology) (murine model of GVHD; mice receiving T2e6+20 mg/kg diet, Day 4): no toxicity was observed | survival (murine model of GVHD; powder mixed with wet food, days -1 to 45, TCDBM+T2e6+20 mg/kg wet food vs TCDBM+T2e6, log-rank p=0.01, FIG. 1B): significant improvements in survival | survival (murine model of GVHD; pre-mixed diet pellets, days -1 to 45, TCDBM+T2e6+20 mg/kg diet vs TCDBM+T2e6, log-rank p=0.001, FIG. 1A): significant improvements in survival | dose-response in improvement in survival, body weight or GVHD score (murine model of GVHD; three doses tested: 20, 50, 200 mg/kg per day, FIG. 1C-1F): does not appear to be a dose-response | Kd (human NE [1]): 9.5 nM | LSS score for lung/breathing at C5 ([2]; Lee cGVHD Symptom Scale, C5 = continuation dosing period up to 6 months, individual patients #1-7): 7 and 3 (2×) and 11 and 2 and 5 and 4 | LSS score for lung/breathing at the end of treatment ([2]; Lee cGVHD Symptom Scale, individual patients #1-7): 8 and 2 and 11 and 3 and 7 and 5 and 1 | patients with progressive disease ([2]; NIH chronic GVHD consensus criteria, decline in FEV1 after pneumonia, of 7 patients): 1 patient | grade 2 adverse event possibly related: ALT or AST elevation ([2]; human, in vivo): 3 patients | grade 2 adverse event possibly related: increased creatinine ([2]; human, in vivo): 3 patients | grade 2 adverse event possibly related: upper respiratory infection ([2]; human, in vivo): 3 patients | grade 3 adverse event possibly related: gastroenteritis and vomiting requiring hospitalization ([2]; human, in vivo): 1 patient | grade 3 adverse event possibly related: pneumonia ([2]; human, in vivo): 1 patient | patients requiring dose interruptions ([2]; human, in vivo): Four | patients requiring dose reduction ([2]; human, in vivo): 1 | patients who discontinued treatment prior to end of study ([2]; human, in vivo): Four | maximum dose to which all 7 patients tolerated dose escalation ([2]; human, in vivo, po, 8 weeks): 240 mg twice daily | End of treatment FEV1 % predicted ([2]; individual patients (patient #1-7)): 47% and 55% and 40% and 46% and 38% and 41% and 73% | patients with improvement in Lee chronic GVHD symptom scale lung score ([2]; of 7 patients, 2 during the 6 month treatment period, 2 at end of treatment): 4 patients | maximum tolerated dose (MTD) ([2]; oral, intra-patient escalation 60 to 240 mg twice daily, 7 patients): not reached | improvement in FEV1 ([2]; seen in 2 of 7 patients): 9% | Ki (human NE [3]): 9.4 nM | pIC50 (human NE [3]): 7.9 | reversibility of inhibition (human NE [3]): rapidly reversible | crossover potency for NE from other species (murine NE; NE from other species, including mice): good crossover potency | pIC50 (murine NE; murine NE): 6.5 | IC50 (NE [4]): 44 nM | pIC50 (NE [4]): 7.36 | IC50 (NE [5]): 48 nM | pIC50 (NE [5]): 7.32
